Measured values taken from patent US8431593B2, “Heteroaryl amide derivatives” (H. Lundbeck A/S, priority 2006, dated 2013).

These compounds were tested against T1, P2X7 receptor (Homo sapiens, UniProt Q99572) (assay: P2X7 calcium mobilization assay, high throughput, antagonist activity (Example 4A)). Conditions: not given.
T1 construct: host or cells: SH-SY5Y
T1 sequence (Q99572 1-595): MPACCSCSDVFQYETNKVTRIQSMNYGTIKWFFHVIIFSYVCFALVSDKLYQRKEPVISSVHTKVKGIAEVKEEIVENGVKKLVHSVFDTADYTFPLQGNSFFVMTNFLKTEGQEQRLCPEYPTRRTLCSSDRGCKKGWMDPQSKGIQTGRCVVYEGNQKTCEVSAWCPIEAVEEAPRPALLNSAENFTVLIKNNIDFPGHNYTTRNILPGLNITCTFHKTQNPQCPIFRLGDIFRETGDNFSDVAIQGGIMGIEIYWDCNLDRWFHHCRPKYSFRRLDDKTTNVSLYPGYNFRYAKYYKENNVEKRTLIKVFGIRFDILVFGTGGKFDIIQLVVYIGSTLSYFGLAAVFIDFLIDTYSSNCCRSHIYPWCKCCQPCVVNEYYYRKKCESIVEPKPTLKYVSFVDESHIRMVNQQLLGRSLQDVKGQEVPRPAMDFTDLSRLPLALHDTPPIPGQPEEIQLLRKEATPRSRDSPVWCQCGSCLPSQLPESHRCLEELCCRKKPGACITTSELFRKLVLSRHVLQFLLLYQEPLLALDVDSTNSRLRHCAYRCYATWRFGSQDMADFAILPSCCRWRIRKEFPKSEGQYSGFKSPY
Type: cell-based
Description: One day prior to the experiment, cells are plated at a density of 100,000 cells/well in a 96 well black/clear TC plate (Corning® Costar®, Sigma-Aldrich Co., St. Louis, Mo.). […] After one hour dye incubation, wells are rinsed once with 50 μL assay solution, and are then incubated for an hour at room temperature with 100 μL assay solution containing the test compound. […] After the one hour incubation, plates are transferred to a FLIPR^TETRA instrument (Molecular Devices, Sunnyvale, Calif.) for calcium mobilization analysis.
First, the average maximum relative fluorescent unit (RFU) response from the negative control wells (no agonist) is subtracted from the maximum response detected for each of the other experimental wells. Second, average maximum RFU response is calculated for the positive control wells (agonist wells).

Compound	IC50 [nM]
O=C(NCC12CC3CC(CC(C3)C1)C2)c1cccc2nc(CCO)cn12 [Compound 6, N-(adamantan-1-ylmethyl)-2-(2-hydroxyethyl)imi-dazo[1,2-a]pyridine-5-carboxamide]	< 2000
O=C(NCCO)c1cn2c(C(=O)NCC34CC5CC(CC(C5)C3)C4)cccc2n1 [Compound 8, 5-N-(adamantan-1-ylmethyl)--(2-hydroxyethyl)imi-dazo[1,2-a]pyridine-2,5-dicarboxamide]	< 2000
CC(C)CNCc1cn2c(C(=O)NCC34CC5CC(CC(C5)C3)C4)cccc2n1 [Compound 12, N-(adamantan-1-ylmethyl)-2-[(isobutyl-amino)methyl]imi-dazo[1,2-a]pyridine-5-carboxamide]	< 2000
O=C(NCC12CC3CC(CC(C3)C1)C2)c1cccc2nc(CN3CCN(CCO)CC3)cn12 [Compound 13, N-(adamantan-1-ylmethyl)-2-{[4-(2-hydroxyethyl)piperazin-1-yl]methyl}imi-dazo[1,2-a]pyridine-5-carboxamide]	< 2000
O=C(O)Cc1cn2c(C(=O)NCC34CC5CC(CC(C5)C3)C4)cccc2n1 [Compound 16, {5-[(adamantan-1-ylmethyl)carbamoyl]imi-dazo[1,2-a]pyridin-2-yl}acetic acid]	< 2000
O=C(Cc1cn2c(C(=O)NCC34CC5CC(CC(C5)C3)C4)cccc2n1)NCCCO [Compound 27, N-(adamantan-1-ylmethyl)-2-{2-[(3-hydroxypropyl)amino]-2-oxoethyl}imi-dazo[1,2-a]pyridine-5-carboxamide]	< 2000
C[C@@H](O)CNC(=O)Cc1cn2c(C(=O)NCC34CC5CC(CC(C5)C3)C4)cccc2n1 [Compound 28, N-(adamantan-1-ylmethyl)-2-(2-{[(2R)-2-hydroxy-propyl]amino}-2-oxoethyl)imi-dazo[1,2-a]pyridine-5-carboxamide]	< 2000
C[C@H](O)CNC(=O)Cc1cn2c(C(=O)NCC34CC5CC(CC(C5)C3)C4)cccc2n1 [Compound 29, N-(adamantan-1-ylmethyl)-2-(2-{[(2S)-2-hydroxy-propyl]amino}-2-oxoethyl)imi-dazo[1,2-a]pyridine-5-carboxamide]	< 2000
CCC(O)CNC(=O)Cc1cn2c(C(=O)NCC34CC5CC(CC(C5)C3)C4)cccc2n1 (stereo not shown) [Compound 30, N-(adamantan-1-ylmethyl)-2-{2-[(2-hydroxy-butyl)amino]-2-oxoethyl}imi-dazo[1,2-a]pyridine-5-carboxamide]	< 2000

Same assay, conditions: SH-SY5Y cells; 50% decrease in fluorescence response to 80 μM BzATP; read-out: IC50

Compound	IC50 [nM]
O=C(NCC12CC3CC(CC(C3)C1)C2)c1cccc2nc(CN3CCNCC3)cn12 [Compound 5, N-(adamantan-1-ylmethyl)-2-(piperazin-1-ylmethyl)imidazo[1,2-a]pyridine-5-carboxamide]	< 2000
CCOC(=O)c1cn2c(C(=O)NCC34CC5CC(CC(C5)C3)C4)c(Cl)ccc2n1 [Compound 7, 5-[(adamantan-1-ylmethyl)-carbamoyl]-6-chloro-imidazo[1,2-a]pyridine-2-carboxylic acid ethyl ester]	< 2000
CN(CCO)C(=O)c1cn2c(C(=O)NCC34CC5CC(CC(C5)C3)C4)cccc2n1 [Compound 9, 5-N-(adamantan-1-ylmethyl)--(2-hydroxyethyl)-- methylimidazo[1,2-a]pyridine-2,5-dicarboxamide]	< 2000
CCOC(=O)c1nc2cccc(C(=O)NCC34CC5CC(CC(C5)C3)C4)n2c1Cl [Compound 15, ethyl 5-[(adamantan-1-ylmethyl)carbamoyl]-3-chloroimidazo[1,2-a]pyridine-2-carboxylate]	< 2000
CCNC(=O)Cc1cn2c(C(=O)NCC34CC5CC(CC(C5)C3)C4)cccc2n1 [Compound 17, N-(adamantan-1-ylmethyl)-2-[2-(ethylamino)-2-oxoethyl]imidazo[1,2-a]pyridine-5-carboxamide]	< 2000
CC(C)CNC(=O)Cc1cn2c(C(=O)NCC34CC5CC(CC(C5)C3)C4)cccc2n1 [Compound 18, N-(adamantan-1-ylmethyl)-2-[2 (isobutylamino)-2-oxoethyl]imidazo[1,2-a]pyridine-5-carboxamide]	< 2000
CN(C)C(=O)CNC(=O)Cc1cn2c(C(=O)NCC34CC5CC(CC(C5)C3)C4)cccc2n1 [Compound 20, N-(adamantan-1-ylmethyl)-2-(2-{[2-(dimethylamino)-2-oxoethyl]amino}-2-oxoethyl)imidazo[1,2-a]pyridine-5-carboxamide]	< 2000
NC(=O)CNC(=O)Cc1cn2c(C(=O)NCC34CC5CC(CC(C5)C3)C4)cccc2n1 [Compound 24, N-(adamantan-1-ylmethyl)-2-{2-[(2-amino-2-oxoethyl)amino]-2-oxoethyl}imidazo[1,2-a]pyridine-5-carboxamide]	< 2000
CC(NC(=O)Cc1cn2c(C(=O)NCC34CC5CC(CC(C5)C3)C4)cccc2n1)C(N)=O (stereo not shown) [Compound 25, N-(adamantan-1-ylmethyl)-2-{2-[(2-amino-1-methyl-2-oxoethyl)amino]-2-oxoethyl}imidazo[1,2-a]pyridine-5-carboxamide]	< 2000
O=C(Cc1cn2c(C(=O)NCC34CC5CC(CC(C5)C3)C4)cccc2n1)NCCO [Compound 26, N-(adamantan-1-ylmethyl)-2-{2-[(2-hydroxyethyl)amino]-2-oxoethyl}imidazo[1,2-a]pyridine-5-carboxamide]	< 2000
CC(O)CCNC(=O)Cc1cn2c(C(=O)NCC34CC5CC(CC(C5)C3)C4)cccc2n1 (stereo not shown) [Compound 31, N-(adamantan-1-ylmethyl)-2-{2-[(3-hydroxybutyl)amino]-2-oxoethyl}imidazo[1,2-a]pyridine-5-carboxamide]	< 2000
CC(C)[C@H](CO)NC(=O)Cc1cn2c(C(=O)NCC34CC5CC(CC(C5)C3)C4)cccc2n1 [Compound 32, N-(adamantan-1-ylmethyl)-2-(2-{[(1R)-1-(hydroxymethyl)-2-methylpropyl]amino}-2-oxoethyl)imidazo[1,2-a]pyridine-5-carboxamide]	< 2000
CC(O)CNC(=O)Cc1cn2c(C(=O)NCC34CC5CC(CC(C5)C3)C4)cccc2n1 (stereo not shown) [Compound 33, N-(adamantan-1-ylmethyl)-2-{2-[(2-hydroxypropyl)amino]-2-oxoethyl}imidazo[1,2-a]pyridine-5-carboxamide]	< 2000
COCC1CCN(C(=O)Cc2cn3c(C(=O)NCC45CC6CC(CC(C6)C4)C5)cccc3n2)CC1 [Compound 34, N-(adamantan-1-ylmethyl)-2-{2-[4-(methoxy-methyl)piperidin-1-yl]-2-oxoethyl}imidazo[1,2-a]pyridine-5-carboxamide]	< 2000
COCCC1CCN(C(=O)Cc2cn3c(C(=O)NCC45CC6CC(CC(C6)C4)C5)cccc3n2)CC1 [Compound 35, N-(adamantan-1-ylmethyl)-2-{2-[4-(2-methoxyethyl)piperidin-1-yl]-2-oxoethyl}imidazo[1,2-a]pyridine-5-carboxamide]	< 2000
CN(C(=O)Cc1cn2c(C(=O)NCC34CC5CC(CC(C5)C3)C4)cccc2n1)C1CCOC1 (stereo not shown) [Compound 37, N-(adamantan-1-ylmethyl)-2-{2-[methyl(tetrahydrofuran-3-yl)amino]-2-oxoethyl}imidazo[1,2-a]pyridine-5-carboxamide]	< 2000
CN1CCC(N(C)C(=O)Cc2cn3c(C(=O)NCC45CC6CC(CC(C6)C4)C5)cccc3n2)C1 (stereo not shown) [Compound 39, N-(adamantan-1-ylmethyl)-2-{2-[methyl(1-methylpyrrolidin-3-yl)amino]-2-oxoethyl}imidazo[1,2-a]pyridine-5-carboxamide]	< 2000
COC1CCN(C(=O)Cc2cn3c(C(=O)NCC45CC6CC(CC(C6)C4)C5)cccc3n2)CC1 [Compound 42, N-(adamantan-1-ylmethyl)-2-[2-(4-methoxypiperidin-1-yl)-2-oxoethyl]imidazo[1,2-a]pyridine-5-carboxamide]	< 2000
CS(=O)(=O)C1CCN(C(=O)Cc2cn3c(C(=O)NCC45CC6CC(CC(C6)C4)C5)cccc3n2)CC1 [Compound 43]	< 2000
CS(=O)(=O)N1CCN(C(=O)Cc2cn3c(C(=O)NCC45CC6CC(CC(C6)C4)C5)cccc3n2)CC1 [Compound 44, N-(adamantan-1-ylmethyl)-2-{2-[4-(methylsulfonyl)piperazin-1-yl]-2-oxoethyl}imidazo[1,2-a]pyridine-5-carboxamide]	< 2000
CN(CCNS(C)(=O)=O)C(=O)Cc1cn2c(C(=O)NCC34CC5CC(CC(C5)C3)C4)cccc2n1 [Compound 45, N-(adamantan-1-ylmethyl)-2-[2-(methyl{2-[(methyl-sulfonyl)amino]eth-yl}amino)-2-oxoethyl]imidazo[1,2-a]pyridine-5-carboxamide]	< 2000
O=C1CN(C(=O)Cc2cn3c(C(=O)NCC45CC6CC(CC(C6)C4)C5)cccc3n2)CCN1 [Compound 46, N-(adamantan-1-ylmethyl)-2-[2-oxo-2-(3-oxopiperazin-1-yl)ethyl]imidazo[1,2-a]pyridine-5-carboxamide]	< 2000
